# According to patent US9453014B2, “Cyclic amide derivatives as inhibitors of 11-β-hydroxysteroid dehydrogenase and uses thereof” (CONNEXIOS LIFE SCIENCES PVT. LTD., priority 2011, dated 2016):
# Biological target: T1, human full length HSD11 β 1 (Homo sapiens, UniProt P28845)
# T1 construct: transient expression of human full length HSD11 β 1 expression vector; host or cells: CHO cells (transient transfection)
# Assay: In Vitro HSD11β1 Inhibition Assay
# Type: cell-based
# Settings: CHO cells transiently expressing human HSD11β1; 200 nM cortisone+500 uM NADPH overnight; cortisone to cortisol by LC/MS-MS; read-out: 11βHSD1 (IC50)
# Outline: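 CHO cells transiently transfected with human full-length HSD11β1 were re-seeded after 24 h and, 24 h later, incubated overnight with 200 nM cortisone plus 500 uM NADPH and inhibitor. Cortisone-to-cortisol conversion was measured by LC/MS-MS. IC50 from an 8-point log concentration–inhibition curve.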
# T1 sequence (P28845 whole entry): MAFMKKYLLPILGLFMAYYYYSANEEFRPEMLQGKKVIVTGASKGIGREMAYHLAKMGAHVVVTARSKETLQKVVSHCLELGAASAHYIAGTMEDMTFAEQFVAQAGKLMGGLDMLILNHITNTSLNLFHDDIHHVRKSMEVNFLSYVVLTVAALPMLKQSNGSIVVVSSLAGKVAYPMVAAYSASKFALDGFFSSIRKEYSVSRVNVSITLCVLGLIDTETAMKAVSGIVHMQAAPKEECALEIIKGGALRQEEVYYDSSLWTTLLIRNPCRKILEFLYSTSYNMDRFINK
row,IC50 [nM],Compound
1,> 250,"CC(CC(=O)N1CCCC2(CO)CCCCC12)c1c[nH]c2nccc(Cl)c12 (centres unmarked) [Example 147, 3-(4-chloro-1H-pyrrolo[2,3-b]pyridin-3-yl)-1-[4a-(hydroxymethyl)octahydroquinolin-1(2H)-yl]butan-1-one]"
2,> 250,"CC(CC(=O)N1CCCC2(O)CCCCC12)c1c[nH]c2ncccc12 (centres unmarked) [Example 148, 1-(4a-hydroxyoctahydroquinolin-1(2H)-yl)-3-(1H-pyrrolo[2,3-b]pyridin-3-yl)butan-1-one]"
3,> 250,"Cc1cccc2[nH]cc(C(C)CC(=O)N3CCCC4(C#N)CCCCC34)c12 (centres unmarked) [Example 149, 1-[3-(4-methyl-1H-indol-3-yl)butanoyl]octahydroquinoline-4a(2H)-carbonitrile]"
4,> 250,"O=C(O)C1CCN(C(=O)CC(c2ccccc2)c2nc3ccccc3s2)C2CCCCC12 (centres unmarked) [Example 152, 1-[3-(1,3-benzothiazol-2-yl)-3-phenylpropanoyl]decahydroquinoline-4-carboxylic acid]"
5,150 to 200,"COC12CCCCC1N(C(=O)CC(C)c1c[nH]c3ncccc13)CCC2 (centres unmarked) [Example 153, 1-(4a-methoxyoctahydroquinolin-1(2H)-yl)-3-(1H-pyrrolo[2,3-b]pyridin-3-yl)butan-1-one]"
6,> 250,"CC(CC(=O)N1CCC(C(=O)O)C2CCCCC21)c1nc2ccccc2s1 (centres unmarked) [Example 154, 1-[3-(1,3-benzothiazol-2-yl)butanoyl]decahydroquinoline-4-carboxylic acid]"
7,> 250,"O=C(O)C1CCN(C(=O)CC(c2ccccc2)c2c[nH]c3cccc(Cl)c23)C2CCCCC12 (centres unmarked) [Example 155, 1-[3-(4-chloro-1H-indol-3-yl)-3-phenylpropanoyl]decahydroquinoline-4-carboxylic acid]"
8,< 100,"O=C(O)C1CCN(C(=O)CC(c2cccs2)c2c[nH]c3cccc(F)c23)C2CCCCC12 (centres unmarked) [Example 156, 1-[3-(4-fluoro-1H-indol-3-yl)-3-(thiophen-2-yl)propanoyl]decahydroquinoline-4-carboxylic acid]"
9,< 100,"O=C(O)C1CCN(C(=O)CC(c2ccc(F)cc2)c2c[nH]c3cccc(F)c23)C2CCCCC12 (centres unmarked) [Example 157, 1-[3-(4-fluoro-1H-indol-3-yl)-3-(4-fluorophenyl)propanoyl]decahydroquinoline-4-carboxylic acid]"
10,> 250,"CC(CC(=O)N1CCC(C(=O)O)C2CCCCC21)c1c[nH]c2cccc(Cl)c12 (centres unmarked) [Example 158, 1-[3-(4-chloro-1H-indol-3-yl)butanoyl]decahydroquinoline-4-carboxylic acid]"
11,> 250,"CC(C)C(CC(=O)N1CCC(C(=O)O)C2CCCCC21)c1c[nH]c2ncccc12 (centres unmarked) [Example 163, 1-[4-methyl-3-(1H-pyrrolo[2,3-b]pyridin-3-yl)pentanoyl]decahydro quinoline-4-carboxylic acid]"
12,100 to 150,"CC(C)C(CC(=O)N1CCCC2CCCCC21)c1c[nH]c2ncccc12 (centres unmarked) [Example 164, 4-methyl-1-(octahydroquinolin-1(2H)-yl)-3-(1H-pyrrolo[2,3-b]pyridin-3-yl)pentan-1-one]"
13,> 250,"CC(CC(=O)N1CCC(C(=O)O)C2CCCCC21)c1c[nH]c2ncccc12 (centres unmarked) [Example 165, 1-[3-(1H-pyrrolo[2,3-b]pyridin-3-yl)butanoyl]decahydroquinoline-4-carboxylic acid]"
14,> 250,"CC(CC(=O)N1CCCC2CCCCC21)n1nnc2c(Cl)cccc21 (centres unmarked) [Example 166, 3-(4-chloro-1H-benzotriazol-1-yl)-1-(octahydroquinolin-1(2H)-yl)butan-1-one]"
15,< 100,"CC(CC(=O)N1CCCC2CCCCC21)n1nc2cccc(Cl)c2n1 (centres unmarked) [Example 167, 3-(4-chloro-2H-benzotriazol-2-yl)-1-(octahydroquinolin-1(2H)-yl)butan-1-one]"
16,> 250,"Cc1cccc2c1nnn2C(C)CC(=O)N1CCC(C(=O)O)C2CCCCC21 (centres unmarked) [Example 168, 1-[3-(4-methyl-1H-benzotriazol-1-yl)butanoyl]decahydroquinoline-4-carboxylic acid]"
17,> 250,"Cc1cccc2nn(C(C)CC(=O)N3CCC(C(=O)O)C4CCCCC43)nc12 (centres unmarked) [Example 169, 1-[3-(4-methyl-2H-benzotriazol-2-yl)butanoyl]decahydroquinoline-4-carboxylic acid]"
18,> 250,"O=C(O)C1CCC2CCCCC2N1C(=O)CC(c1cccs1)c1c[nH]c2cccc(F)c12 (centres unmarked) [Example 170, 1-[3-(4-fluoro-1H-indol-3-yl)-3-(thiophen-2-yl)propanoyl]decahydroquinoline-2-carboxylic acid]"
19,> 250,"CC(CC(=O)N1CCC(C(=O)O)C2CCCCC21)c1c[nH]c2nccc(Cl)c12 (centres unmarked) [Example 171, 1-[3-(4-chloro-1H-pyrrolo[2,3-b]pyridin-3-yl)butanoyl]decahydroquinoline-4-carboxylic acid]"
20,> 250,"Cc1cccc2c1nnn2C(CC(=O)N1CCCC2CCCCC21)C(C)C (centres unmarked) [Example 172, 4-methyl-3-(4-methyl-1H-benzotriazol-1-yl)-1-(octahydroquinolin-1(2H)-yl)pentan-1-one]"
21,< 100,"CC(CC(=O)N1CCCC2CCCCC21)c1nc2c(Cl)cccc2s1 (centres unmarked) [Example 173, 3-(4-chloro-1,3-benzothiazol-2-yl)-1-(octahydroquinolin-1(2H)-yl)butan-1-one]"
22,> 250,"O=C(O)C1CCC2CCCCC2N1C(=O)CC(c1ccccc1)c1c[nH]c2cc(F)ccc12 (centres unmarked) [Example 174, 1-[3-(6-fluoro-1H-indol-3-yl)-3-phenylpropanoyl]decahydroquinoline-2-carboxylic acid]"
23,> 250,"O=C(O)C1CC2CCCCC2N(C(=O)CC(c2ccccc2)c2c[nH]c3cc(F)ccc23)C1 (centres unmarked) [Example 175, 1-[3-(6-fluoro-1H-indol-3-yl)-3-phenylpropanoyl]decahydroquinoline-3-carboxylic acid]"
24,150 to 200,"O=C(O)C1CC2CCCCC2N(C(=O)CC(c2ccccc2)c2c[nH]c3cccc(F)c23)C1 (centres unmarked) [Example 176, 1-[3-(4-fluoro-1H-indol-3-yl)-3-phenylpropanoyl]decahydroquinoline-3-carboxylic acid]"
25,> 250,"CC(C)C(CC(=O)N1CCC(C(=O)O)C2CCCCC21)c1c[nH]c2cccc(F)c12 (centres unmarked) [Example 179, 1-[3-(4-fluoro-1H-Indol-3-yl)-4-methylpentanoyl]decahydroquinoline-4-carboxylic acid]"
26,> 250,"Cc1ccnc2[nH]cc(C(CC(=O)N3CCC(C(=O)O)C4CCCCC43)C(C)C)c12 (centres unmarked) [Example 180, 1-[4-methyl-3-(4-methyl-1H-pyrrolo[2,3-b]pyridin-3-yl)pentanoyl]decahydroquinoline-4-carboxylic acid]"
27,> 250,"Cc1cccc2c1nnn2C(CC(=O)N1CCC(C(=O)O)C2CCCCC21)C(C)C (centres unmarked) [Example 183, 1-[4-methyl-3-(4-methyl-1H-benzotriazol-1-yl)pentanoyl]decahydroquinoline-4-carboxylic acid]"
28,> 250,"O=C(O)C1CCN(C(=O)CC(c2cccs2)c2c[nH]c3cccc(Cl)c23)C2CCCCC12 (centres unmarked) [Example 184, 1-[3-(4-chloro-1H-indol-3-yl)-3-(thiophen-2-yl)propanoyl]decahydroquinoline-4-carboxylic acid]"
29,150 to 200,"CC(C)C(CC(=O)N1CCC(C(=O)O)C2CCCCC21)c1c[nH]c2cc(Cl)ccc12 (centres unmarked) [Example 185, 1-[3-(6-chloro-1H-indol-3-yl)-4-methylpentanoyl]decahydroquinoline-4-carboxylic acid]"
